Molecules are shown by their SMILES. “And” between values parts separate entries of the source, which are not always exact repeats. Equal entries are not always repeated.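 1) Cells in 96-well plates. 2) Compound, 48 h, 5 concentrations. 3) Linear interpolation between surrounding doses. 4) Unreached endpoint = highest concentration. GI50 is the concentration that inhibits growth by half. TGI: concentration producing complete growth inhibition.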

What all share (assay): inhibition of tumour cell growth, NCI panel, 48 h
Assay [1] relates to 786-0 renal.
In assay [2] the test system is COLO 205 colon.
Assay [3] deals with EKVX NSCLC.
The test system of assay [4] is HCT-15 colon.
The subject of assay [5] is HOP-92 NSCLC.
The test system of assay [6] is HS 578T breast.
The subject of assay [7] is K-562 leukemia.
Assay [8] concerns SK-MEL-28 melanoma.
For assay [9], the system named is SK-MEL-5 melanoma.
In assay [10] the test system is SK-OV-3 ovarian.
In assay [11] the test system is IGROV1 ovarian.

As to `COc1ccc(/C=C/C(=O)N[C@@H]2C(=O)N3[C@@H]2SC(C)(C)[C@@H]3C(=O)O)cc1OC`, the TGI in assay [1], in assay [2], in [3], in assay [4], in assay [5] and in assay [6] was greater than 100 µM throughout. In addition, the TGI in assay [7], in assay [8], in assay [9] and in assay [10] was greater than 100 µM throughout.

As for `O=C1CSC2(CC(/C=C/c3ccccc3[N+](=O)[O-])=NN2c2cccc(S(=O)(=O)O)c2)N1c1nc2ccccc2s1` (configuration not stated), the TGI is 22.5 µM in assay [1]; greater than 75 µM in assay [2]; greater than 75 µM in assay [3]; 35 µM in assay [4]; 56.7 µM in assay [5]; greater than 75 µM in [6]. In addition, the TGI was 36.1 µM in assay [11], 63.3 µM in [7], greater than 75 µM in assay [8] and greater than 75 µM in [9].

In the case of `Cc1c(OCc2cccc3ccccc23)ccc2c(=O)cc(S)oc12`, the TGI in [1] was greater than 100 µM; in assay [2], greater than 100 µM; in assay [3], greater than 100 µM; in assay [4], greater than 100 µM; in assay [5], 67.1 µM; in assay [6], greater than 100 µM. In addition, the TGI in assay [11], in assay [7], in [8] and in [9] was greater than 100 µM in each case.

With `O=[N+]([O-])c1ccc(N/N=C\c2ccc(O)cc2O)nc1`, the GI50 was 5.56 µM in assay [2]; 3.49 µM in [3]; 828 nM in assay [4]; 5.54 µM in assay [5]; 38.3 µM in assay [6]; 3.4 µM in assay [11]. In addition, the GI50 is 5.03 µM in assay [8] and 2180 nM in assay [10]. Further, the TGI in [2], in [3], in [4], in assay [5], in assay [6] and in [11] was greater than 100 µM each time. Also, the TGI in [8] and in assay [10] was greater than 100 µM in each case.

In the case of `COc1ccc(C2=Nn3c(C)nnc3S/C2=C\c2ccc(-c3ccc([N+](=O)[O-])cc3)o2)cc1`, the TGI in assay [1] was 22 µM; in [3], 82.9 µM; in assay [4], 27.7 µM; in assay [5] it was 62.2 µM; in [6] it was greater than 100 µM; in [11], 42.7 µM. Also, the TGI in assay [7] was 17.7 µM; in assay [9], 34.4 µM; in assay [10], greater than 100 µM.

As to `C=C(C)[C@H]1C=C[C@@H](OC(C)=O)[C@@]2(COC(C)=O)[C@H](OC(=O)CCC)[C@H]3[C@@H](OC(C)=O)[C@@H](C)C[C@]3(O)C(=O)[C@@](C)(OC(C)=O)[C@H]12`, the TGI was greater than 100 µM in [1]; 65 µM in assay [2]; greater than 100 µM in [3]; greater than 100 µM in assay [4]; 69.8 µM in assay [5]; greater than 100 µM in assay [6]. The TGI in assay [11], in assay [7], in [8] and in assay [9] was greater than 100 µM in each case.

Consider `O=Cc1ccc(Oc2c3ccccc3nc3ccccc23)cc1`, for which the TGI in [1] came out at 6.16 µM; in assay [2], 10.1 µM; in [3], 40.2 µM; in assay [4] it was 19.5 µM; in assay [5], 17.7 µM; in assay [6] it was 7.91 µM. Further, the TGI was 25.6 µM in assay [8], 24.2 µM in assay [9] and 21.6 µM in assay [10].

Consider `O=CC1C(=O)Nc2nc3ccccc3n2C1c1ccccc1` (configuration not stated), for which the TGI in assay [1] is 24.9 µM; in assay [2], 26.2 µM; in assay [3] it was 82 µM; in [4], 37 µM; in [5], 31.3 µM; in assay [6] it was greater than 100 µM. Also, the TGI in assay [11] is 27.3 µM; in assay [7] it was 35.3 µM; in assay [8], 46.4 µM; in [9], 28.7 µM.

In the case of `COc1cc2oc(=O)cc(C)c2c(OC)c1OC`, the TGI in assay [1], in assay [2], in assay [3], in assay [4], in assay [6] and in assay [11] was greater than 100 µM throughout. Further, the TGI in assay [7], in assay [8], in assay [9] and in assay [10] was greater than 100 µM in each case.

Take `COC(=O)CCC(=O)c1ccc2c(c1)CC1(Cc3ccccc3C1)C2`: the TGI in assay [1] was greater than 100 µM; in assay [2] it was 82.3 µM; in [3] it was greater than 100 µM; in assay [5], greater than 100 µM; in [6] it was greater than 100 µM; in assay [11], greater than 100 µM. Also, the TGI was 33.1 µM in [9] and greater than 100 µM in assay [10].

As to `COc1ccc(/C=C2/C(=O)C(c3ccccc3)N(c3ccccc3)C2=O)cc1OC` (configuration not stated), the TGI in assay [1], in assay [2], in [3], in assay [4], in assay [5] and in assay [6] was greater than 10 µM each time. The TGI in assay [11] was 2.28 µM; in assay [8] it was greater than 10 µM; in assay [9], 0.307 µM; in assay [10], greater than 10 µM.

On to `CSc1cc(Cl)c(C)cc1S(=O)(=O)NC(=O)NNc1cnc2ccccc2n1`, for which the TGI in assay [1], in assay [2], in assay [3], in [4], in [6] and in assay [11] was greater than 100 µM each time. In addition, the TGI in [7], in assay [8], in assay [9] and in assay [10] was greater than 100 µM throughout.

On to `COc1ccc(-c2c(C#N)c(N)n(C3OC(COC(C)=O)C(OC(C)=O)C(OC(C)=O)C3OC(C)=O)c(=S)c2C#N)cc1` (configuration not stated), for which the TGI in assay [1] was > 100 µM and 75.5 µM; in assay [2], > 100 µM and 43.2 µM; in assay [3] it was greater than 100 µM; in [4], greater than 100 µM; in [5], 82.8 µM and 49.4 µM; in assay [6] it was 83 µM and > 100 µM. Also, the TGI was greater than 100 µM in [11]; > 100 µM and 32.7 µM in assay [8]; > 100 µM and 56.4 µM in [9]; 78.1 µM and 85 µM in [10]. The GI50 in [2] was > 100 µM and 21.2 µM; in assay [11] it was > 100 µM and 31.6 µM; in assay [8] it was 91.5 µM and 18.6 µM.

As to `COc1ccc([C@H]2C=C(c3cc(F)c(Cl)cc3Cl)N=c3s/c(=C\c4ccc(-c5ccc(Cl)cc5Cl)o4)c(=O)n32)cc1`, the TGI in assay [1], in assay [2], in assay [4], in assay [5], in [6] and in assay [11] was greater than 100 µM throughout. For the same compound, the TGI in [7] was greater than 100 µM; in [8] it was greater than 100 µM; in assay [9], greater than 100 µM; in assay [10], 65.2 µM.

Regarding `O=C(CN1CCOCC1)c1ccc2c(c1)oc(=O)n2CCN1CCCCC1`, the TGI in assay [1], in assay [2], in assay [3], in assay [4], in [6] and in assay [11] was greater than 100 µM throughout. Moreover, the TGI in [7], in assay [8], in [9] and in assay [10] was greater than 100 µM throughout.

As to `Cc1ccc(S(=O)(=O)N/N=C2/C3CC4CCC2C4C3)cc1` (configuration not stated), the TGI in [1], in assay [2], in [3], in assay [4], in assay [5] and in assay [6] was greater than 100 µM in each case. Also, the TGI in assay [11], in assay [8], in assay [9] and in assay [10] was greater than 100 µM each time.

`COc1cc(/C=C2\CCCC3=C2N=C2SC=NN2C3c2cc(OC)c(OC)c(OC)c2)cc(OC)c1OC` (configuration not stated): the GI50 was 2250 nM in assay [4]; 2.98 µM in [5]; 4.85 µM in assay [6]; 3080 nM in assay [7]; 2.07 µM in assay [8]. The TGI in assay [4] is 5.91 µM; in [5], greater than 100 µM; in assay [6], greater than 100 µM; in assay [7], greater than 100 µM; in assay [8] it was 5.26 µM.

Consider `O=c1[nH]nc(-c2ccccc2)c2[nH]c3c(c12)CCCc1ccccc1-3`, for which the TGI in assay [1] was 28 µM; in assay [2] it was 22.2 µM; in assay [3] it was greater than 100 µM; in assay [4] it was 10.4 µM; in [5], 54.8 µM; in assay [6], 38.7 µM. Further, the TGI is 25 µM in [11], 94.8 µM in assay [7], 26.5 µM in [9] and greater than 100 µM in assay [10].

For `COc1ccc(OC)c2c1-c1nnnn1CCC2(C)C`, the TGI in assay [1], in assay [2], in [3], in assay [4], in assay [5] and in assay [6] was greater than 100 µM each time. Besides, the TGI in assay [11], in [7], in [8] and in assay [10] was greater than 100 µM in each case.

As for `CC1(C)CC(=O)C(/C=N/c2nc(-c3cccc([N+](=O)[O-])c3)cs2)=C(O)C1`, the TGI in [1] was 29.9 µM; in [2], 30.9 µM; in assay [3], 46.6 µM; in assay [4] it was 23.8 µM; in assay [5], 39.6 µM; in [6] it was 62.4 µM. Further, the TGI in assay [11] is 44.7 µM; in assay [7], 52.6 µM; in assay [10] it was greater than 100 µM.

For the compound `COC(=O)/C=C/c1cc(OC)c2c(c1)C(C(=O)OC)C(c1ccc(O)c(OC)c1)O2` (configuration not stated), the TGI is > 100 µM and > 49.7 µM and 36.3 µM in assay [1]; 35.4 µM and 26.4 µM and 25.8 µM in assay [2]; > 100 µM and 57.6 µM in assay [3]; > 100 µM and > 53.7 µM and 56.6 µM in assay [4]; greater than 100 µM in assay [5]; greater than 88.1 µM in [6]. Moreover, the TGI in [11] is > 100 µM and 35.2 µM; in [7] it was greater than 50.3 µM; in assay [8], > 100 µM and > 70.4 µM and 86.7 µM; in [10], greater than 100 µM. Besides, the GI50 was 17 µM and 13.1 µM and 7.32 µM in [2]; > 29.4 µM and 18.5 µM and 3.45 µM in assay [3]; 2740 nM and 1520 nM and 629 nM in assay [4]; > 37.2 µM and 12.4 µM and 16.9 µM in [5]; 5.34 µM in [6]; 4.9 µM and 2.61 µM and 2.09 µM in assay [11]. The GI50 was 1510 nM and 1110 nM and 579 nM in [7]; > 56.3 µM and 18.9 µM and 9.69 µM in assay [8].

For `Cc1cn(C2CC(/[N+]([O-])=N\Nc3ccc([N+](=O)[O-])cc3)C(CO)O2)c(=O)[nH]c1=O` (configuration not stated), the TGI in assay [1], in assay [2], in assay [3], in [4], in [5] and in assay [6] was greater than 100 µM throughout. Further, the TGI in assay [11], in assay [7], in [8] and in assay [10] was greater than 100 µM each time.

Consider `CC(C)N=C(NC#N)NS(=O)(=O)c1cnccc1NC1CCCCCCC1`, for which the TGI in assay [1], in assay [2], in [3], in [4], in assay [6] and in assay [11] was greater than 100 µM each time. Besides, the TGI in assay [7], in assay [8], in assay [9] and in assay [10] was greater than 100 µM throughout.

With `CCOC(=O)C(C(=O)OCC)C(=S)NC1OC(COC(C)=O)C(OC(C)=O)C(OC(C)=O)C1OC(C)=O` (configuration not stated), the TGI in [1], in assay [2], in [3], in assay [4], in [5] and in [6] was greater than 100 µM throughout. The TGI in [11], in assay [8], in assay [9] and in assay [10] was greater than 100 µM in each case.

For `COc1ccccc1N1C(=O)/C(=C\c2ccccc2)SC1c1cc(OC)c(OC)c(OC)c1` (configuration not stated), the TGI in assay [1], in assay [2], in assay [3], in [4], in assay [5] and in assay [6] was greater than 100 µM in each case. Further, the TGI in assay [7], in assay [8], in [9] and in assay [10] was greater than 100 µM each time.
